How the values were obtained:
D1 (h) = target: T1, D1 (h) (Homo sapiens, UniProt P21728); test: CEREP binding panel; settings: antagonist radioligand, read-out: % Inhibition of Control Specific Binding
T1 construct: purchased Millipore KinaseProfiler (kinases); Cerep (receptors and ion channels)

D2S (h) = target: T2, D2S (h) (Homo sapiens, UniProt P14416); test: CEREP binding panel; settings: antagonist radioligand, read-out: % Inhibition of Control Specific Binding
T2 construct: purchased Millipore KinaseProfiler (kinases); Cerep (receptors and ion channels)

GABA (non-selective) = test: CEREP binding panel; settings: 10 μM, agonist radioligand
GAL2 (h) = target: T3, GAL2 (h) (Homo sapiens, UniProt O43603); test: CEREP binding panel; settings: agonist radioligand, read-out: % Inhibition of Control Specific Binding
T3 construct: purchased Millipore KinaseProfiler (kinases); Cerep (receptors and ion channels)

M1 (h) = target: T4, M1 (h) (Homo sapiens, UniProt P11229); test: CEREP binding panel; settings: antagonist radioligand, read-out: % Inhibition of Control Specific Binding
T4 construct: purchased Millipore KinaseProfiler (kinases); Cerep (receptors and ion channels)

NK2 (h) = target: T5, NK2 (h) (Homo sapiens, UniProt P21452); test: CEREP binding panel; settings: agonist radioligand, read-out: % Inhibition of Control Specific Binding
T5 construct: purchased Millipore KinaseProfiler (kinases); Cerep (receptors and ion channels)

Y2 (h) = target: T6, Y2 (h) (Homo sapiens, UniProt P49146); test: CEREP binding panel; settings: agonist radioligand, read-out: % Inhibition of Control Specific Binding
T6 construct: purchased Millipore KinaseProfiler (kinases); Cerep (receptors and ion channels)

NOP (ORL1) (h) = target: T7, NOP (ORL1) (h) (Homo sapiens, UniProt P41146); test: CEREP binding panel; settings: agonist radioligand, read-out: % Inhibition of Control Specific Binding
T7 construct: purchased Millipore KinaseProfiler (kinases); Cerep (receptors and ion channels)

5-HT1B = target: T8, 5-HT1B (Rattus norvegicus, UniProt P28564); test: CEREP binding panel; settings: antagonist radioligand, read-out: % Inhibition of Control Specific Binding
T8 construct: purchased Millipore KinaseProfiler (kinases); Cerep (receptors and ion channels)
T8 sequence (P28564 whole entry): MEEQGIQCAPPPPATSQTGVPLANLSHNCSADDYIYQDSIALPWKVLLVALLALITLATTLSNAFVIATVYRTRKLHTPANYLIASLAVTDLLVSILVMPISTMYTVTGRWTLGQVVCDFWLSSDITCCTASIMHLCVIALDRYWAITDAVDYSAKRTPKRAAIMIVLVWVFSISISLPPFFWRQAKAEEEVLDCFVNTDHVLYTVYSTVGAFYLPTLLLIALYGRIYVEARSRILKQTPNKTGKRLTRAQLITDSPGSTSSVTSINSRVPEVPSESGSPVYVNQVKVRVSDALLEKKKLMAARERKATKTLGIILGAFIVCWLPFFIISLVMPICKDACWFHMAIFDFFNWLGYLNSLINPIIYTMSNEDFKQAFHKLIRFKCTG

dopamine transporter (h) = target: T9, dopamine transporter (h) (Homo sapiens, UniProt Q01959); test: CEREP binding panel; settings: antagonist radioligand, read-out: % Inhibition of Control Specific Binding
T9 construct: purchased Millipore KinaseProfiler (kinases); Cerep (receptors and ion channels)
T9 sequence (Q01959 whole entry): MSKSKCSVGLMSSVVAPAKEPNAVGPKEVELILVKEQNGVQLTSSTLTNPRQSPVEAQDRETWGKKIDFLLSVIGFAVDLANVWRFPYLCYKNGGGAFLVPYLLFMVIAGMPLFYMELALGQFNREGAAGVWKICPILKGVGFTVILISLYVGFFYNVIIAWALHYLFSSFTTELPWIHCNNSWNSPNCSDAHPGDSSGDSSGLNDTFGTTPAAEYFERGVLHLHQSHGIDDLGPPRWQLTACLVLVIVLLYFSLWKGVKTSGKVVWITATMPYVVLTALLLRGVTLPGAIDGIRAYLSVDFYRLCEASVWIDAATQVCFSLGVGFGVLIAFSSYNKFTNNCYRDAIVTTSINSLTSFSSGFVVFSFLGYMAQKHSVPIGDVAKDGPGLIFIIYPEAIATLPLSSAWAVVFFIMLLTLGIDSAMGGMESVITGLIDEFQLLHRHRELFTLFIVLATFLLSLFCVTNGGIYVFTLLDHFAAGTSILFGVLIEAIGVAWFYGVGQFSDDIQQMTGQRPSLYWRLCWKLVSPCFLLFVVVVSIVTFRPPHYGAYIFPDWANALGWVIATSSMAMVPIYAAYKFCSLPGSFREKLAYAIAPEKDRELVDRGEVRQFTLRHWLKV

ALK4 = target: T10, ALK4 (Homo sapiens, UniProt P36896); test: Millipore kinase panel; format: biochemical; settings: read-out: % Control
T10 construct: purchased Millipore KinaseProfiler (kinases); Cerep (receptors and ion channels)

BRSK1 = target: T11, BRSK1 (Homo sapiens, UniProt Q8TDC3); test: Millipore kinase panel; format: biochemical; settings: read-out: % Control
T11 construct: purchased Millipore KinaseProfiler (kinases); Cerep (receptors and ion channels)

EPHA2 = target: T12, EPHA2 (Homo sapiens, UniProt P29317); test: Millipore kinase panel; format: biochemical; settings: read-out: % Control
T12 construct: purchased Millipore KinaseProfiler (kinases); Cerep (receptors and ion channels)
T12 sequence (P29317 24-976): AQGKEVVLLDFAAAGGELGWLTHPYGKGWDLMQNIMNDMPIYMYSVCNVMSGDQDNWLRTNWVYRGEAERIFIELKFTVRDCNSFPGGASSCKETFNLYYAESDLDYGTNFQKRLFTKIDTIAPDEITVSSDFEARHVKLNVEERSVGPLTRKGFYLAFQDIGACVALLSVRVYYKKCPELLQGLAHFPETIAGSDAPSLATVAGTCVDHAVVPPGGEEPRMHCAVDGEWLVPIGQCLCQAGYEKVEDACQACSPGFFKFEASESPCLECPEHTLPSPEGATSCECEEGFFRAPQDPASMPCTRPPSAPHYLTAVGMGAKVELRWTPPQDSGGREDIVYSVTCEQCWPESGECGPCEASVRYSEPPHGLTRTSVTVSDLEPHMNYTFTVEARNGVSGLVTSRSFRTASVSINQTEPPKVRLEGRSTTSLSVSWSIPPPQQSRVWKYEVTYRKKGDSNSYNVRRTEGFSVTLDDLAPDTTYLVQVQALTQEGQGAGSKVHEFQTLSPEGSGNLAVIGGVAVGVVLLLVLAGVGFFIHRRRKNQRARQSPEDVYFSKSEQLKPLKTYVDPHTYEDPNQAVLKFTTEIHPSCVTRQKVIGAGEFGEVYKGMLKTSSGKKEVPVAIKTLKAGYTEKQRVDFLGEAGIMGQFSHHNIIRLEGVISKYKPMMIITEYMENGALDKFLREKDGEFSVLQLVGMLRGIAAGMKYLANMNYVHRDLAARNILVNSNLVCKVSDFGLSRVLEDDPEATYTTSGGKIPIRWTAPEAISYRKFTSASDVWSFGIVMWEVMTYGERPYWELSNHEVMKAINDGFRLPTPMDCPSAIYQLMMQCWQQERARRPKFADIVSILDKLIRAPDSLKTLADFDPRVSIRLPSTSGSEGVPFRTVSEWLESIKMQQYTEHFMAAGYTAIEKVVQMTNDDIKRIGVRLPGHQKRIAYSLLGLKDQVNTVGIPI

EPHA8 = target: T13, EPHA8 (Homo sapiens, UniProt P29322); test: Millipore kinase panel; format: biochemical; settings: read-out: % Control
T13 construct: purchased Millipore KinaseProfiler (kinases); Cerep (receptors and ion channels)

FGFR3 = target: T14, FGFR3 (Homo sapiens, UniProt P22607); test: Millipore kinase panel; format: biochemical; settings: read-out: % Control
T14 construct: purchased Millipore KinaseProfiler (kinases); Cerep (receptors and ion channels)

FGR = target: T15, FGR (Homo sapiens, UniProt P09769); test: Millipore kinase panel; format: biochemical; settings: read-out: % Control
T15 construct: purchased Millipore KinaseProfiler (kinases); Cerep (receptors and ion channels)

FLT1 = target: T16, FLT1 (Homo sapiens, UniProt P17948); test: Millipore kinase panel; format: biochemical; settings: read-out: % Control
T16 construct: purchased Millipore KinaseProfiler (kinases); Cerep (receptors and ion channels)

FMS = target: T17, FMS (Homo sapiens, UniProt P07333); test: Millipore kinase panel; format: biochemical; settings: read-out: % Control
T17 construct: purchased Millipore KinaseProfiler (kinases); Cerep (receptors and ion channels)

HIPK3 = target: T18, HIPK3 (Homo sapiens, UniProt Q9H422); test: Millipore kinase panel; format: biochemical; settings: read-out: % Control
T18 construct: purchased Millipore KinaseProfiler (kinases); Cerep (receptors and ion channels)

IRR = target: T19, IRR (Homo sapiens, UniProt P14616); test: Millipore kinase panel; format: biochemical; settings: read-out: % Control
T19 construct: purchased Millipore KinaseProfiler (kinases); Cerep (receptors and ion channels)

JNK1ALPHA1 = target: T20, JNK1ALPHA1 (Homo sapiens, UniProt P45983); test: Millipore kinase panel; format: biochemical; settings: read-out: % Control
T20 construct: purchased Millipore KinaseProfiler (kinases); Cerep (receptors and ion channels)

JNK3 = target: T21, JNK3 (Homo sapiens, UniProt P53779); test: Millipore kinase panel; format: biochemical; settings: read-out: % Control
T21 construct: purchased Millipore KinaseProfiler (kinases); Cerep (receptors and ion channels)

LKB1 = target: T22, LKB1 (Homo sapiens, UniProt Q15831); test: Millipore kinase panel; format: biochemical; settings: read-out: % Control
T22 construct: purchased Millipore KinaseProfiler (kinases); Cerep (receptors and ion channels)

MAPKAP-K3 = target: T23, MAPKAP-K3 (Homo sapiens, UniProt Q16644); test: Millipore kinase panel; format: biochemical; settings: read-out: % Control
T23 construct: purchased Millipore KinaseProfiler (kinases); Cerep (receptors and ion channels)

MARK1 = target: T24, MARK1 (Homo sapiens, UniProt Q9P0L2); test: Millipore kinase panel; format: biochemical; settings: read-out: % Control
T24 construct: purchased Millipore KinaseProfiler (kinases); Cerep (receptors and ion channels)
T24 sequence (Q9P0L2 whole entry): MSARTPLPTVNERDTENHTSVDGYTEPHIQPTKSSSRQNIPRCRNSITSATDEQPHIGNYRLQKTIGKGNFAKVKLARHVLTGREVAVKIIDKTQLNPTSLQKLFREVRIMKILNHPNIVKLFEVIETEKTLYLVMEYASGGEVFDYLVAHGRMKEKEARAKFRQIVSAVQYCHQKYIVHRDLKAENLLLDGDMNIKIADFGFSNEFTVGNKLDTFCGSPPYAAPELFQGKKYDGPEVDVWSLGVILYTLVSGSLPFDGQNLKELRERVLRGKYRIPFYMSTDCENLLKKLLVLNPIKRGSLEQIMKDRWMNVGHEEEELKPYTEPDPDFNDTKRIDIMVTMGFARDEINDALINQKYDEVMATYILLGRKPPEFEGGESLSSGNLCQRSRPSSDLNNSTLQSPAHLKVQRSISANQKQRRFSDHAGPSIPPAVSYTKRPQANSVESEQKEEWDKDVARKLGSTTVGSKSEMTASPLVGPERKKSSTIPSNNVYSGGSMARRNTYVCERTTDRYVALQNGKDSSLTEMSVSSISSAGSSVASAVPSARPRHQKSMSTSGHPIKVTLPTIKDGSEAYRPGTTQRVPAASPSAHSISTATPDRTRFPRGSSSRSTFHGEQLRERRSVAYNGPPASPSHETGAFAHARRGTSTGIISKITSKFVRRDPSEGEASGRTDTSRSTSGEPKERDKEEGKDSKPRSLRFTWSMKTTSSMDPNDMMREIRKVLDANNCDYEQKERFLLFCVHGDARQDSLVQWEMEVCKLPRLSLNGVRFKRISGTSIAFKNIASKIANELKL

MEK1 = target: T25, MEK1 (Homo sapiens, UniProt Q02750); test: Millipore kinase panel; format: biochemical; settings: read-out: % Control
T25 construct: purchased Millipore KinaseProfiler (kinases); Cerep (receptors and ion channels)

MST2 = target: T26, MST2 (Homo sapiens, UniProt Q13188); test: Millipore kinase panel; format: biochemical; settings: read-out: % Control
T26 construct: purchased Millipore KinaseProfiler (kinases); Cerep (receptors and ion channels)

PAK4 = target: T27, PAK4 (Homo sapiens, UniProt O96013); test: Millipore kinase panel; format: biochemical; settings: read-out: % Control
T27 construct: purchased Millipore KinaseProfiler (kinases); Cerep (receptors and ion channels)

PAR-1BALPHA = target: T28, PAR-1BALPHA (Homo sapiens, UniProt Q7KZI7); test: Millipore kinase panel; format: biochemical; settings: read-out: % Control
T28 construct: purchased Millipore KinaseProfiler (kinases); Cerep (receptors and ion channels)

PIM-2 = target: T29, PIM-2 (Homo sapiens, UniProt Q9P1W9); test: Millipore kinase panel; format: biochemical; settings: read-out: % Control
T29 construct: purchased Millipore KinaseProfiler (kinases); Cerep (receptors and ion channels)
T29 sequence (Q9P1W9 whole entry): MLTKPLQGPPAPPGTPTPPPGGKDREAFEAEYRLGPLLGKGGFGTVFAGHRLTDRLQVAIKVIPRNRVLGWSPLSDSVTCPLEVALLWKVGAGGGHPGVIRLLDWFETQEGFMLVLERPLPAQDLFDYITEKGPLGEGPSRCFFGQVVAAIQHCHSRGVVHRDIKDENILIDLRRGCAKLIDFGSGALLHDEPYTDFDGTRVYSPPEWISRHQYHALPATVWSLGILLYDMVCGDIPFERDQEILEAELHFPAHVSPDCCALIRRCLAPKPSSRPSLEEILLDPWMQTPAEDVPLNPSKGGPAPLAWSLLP

PRAK = target: T30, PRAK (Homo sapiens, UniProt Q8IW41); test: Millipore kinase panel; format: biochemical; settings: read-out: % Control
T30 construct: purchased Millipore KinaseProfiler (kinases); Cerep (receptors and ion channels)

PRK2 = target: T31, PRK2 (Homo sapiens, UniProt Q16513); test: Millipore kinase panel; format: biochemical; settings: read-out: % Control
T31 construct: purchased Millipore KinaseProfiler (kinases); Cerep (receptors and ion channels)

CRAF = target: T32, CRAF (Homo sapiens, UniProt P04049); test: Millipore kinase panel; format: biochemical; settings: read-out: % Control
T32 construct: purchased Millipore KinaseProfiler (kinases); Cerep (receptors and ion channels)

RSE = target: T33, RSE (Homo sapiens, UniProt Q06418); test: Millipore kinase panel; format: biochemical; settings: read-out: % Control
T33 construct: purchased Millipore KinaseProfiler (kinases); Cerep (receptors and ion channels)

SAPK2B = target: T34, SAPK2B (Homo sapiens, UniProt Q15759); test: Millipore kinase panel; format: biochemical; settings: read-out: % Control
T34 construct: purchased Millipore KinaseProfiler (kinases); Cerep (receptors and ion channels)

SRPK2 = target: T35, SRPK2 (Homo sapiens, UniProt P78362); test: Millipore kinase panel; format: biochemical; settings: read-out: % Control
T35 construct: purchased Millipore KinaseProfiler (kinases); Cerep (receptors and ion channels)

TBK1 = target: T36, TBK1 (Homo sapiens, UniProt Q9UHD2); test: Millipore kinase panel; format: biochemical; settings: read-out: % Control
T36 construct: purchased Millipore KinaseProfiler (kinases); Cerep (receptors and ion channels)
T36 sequence (Q9UHD2 whole entry): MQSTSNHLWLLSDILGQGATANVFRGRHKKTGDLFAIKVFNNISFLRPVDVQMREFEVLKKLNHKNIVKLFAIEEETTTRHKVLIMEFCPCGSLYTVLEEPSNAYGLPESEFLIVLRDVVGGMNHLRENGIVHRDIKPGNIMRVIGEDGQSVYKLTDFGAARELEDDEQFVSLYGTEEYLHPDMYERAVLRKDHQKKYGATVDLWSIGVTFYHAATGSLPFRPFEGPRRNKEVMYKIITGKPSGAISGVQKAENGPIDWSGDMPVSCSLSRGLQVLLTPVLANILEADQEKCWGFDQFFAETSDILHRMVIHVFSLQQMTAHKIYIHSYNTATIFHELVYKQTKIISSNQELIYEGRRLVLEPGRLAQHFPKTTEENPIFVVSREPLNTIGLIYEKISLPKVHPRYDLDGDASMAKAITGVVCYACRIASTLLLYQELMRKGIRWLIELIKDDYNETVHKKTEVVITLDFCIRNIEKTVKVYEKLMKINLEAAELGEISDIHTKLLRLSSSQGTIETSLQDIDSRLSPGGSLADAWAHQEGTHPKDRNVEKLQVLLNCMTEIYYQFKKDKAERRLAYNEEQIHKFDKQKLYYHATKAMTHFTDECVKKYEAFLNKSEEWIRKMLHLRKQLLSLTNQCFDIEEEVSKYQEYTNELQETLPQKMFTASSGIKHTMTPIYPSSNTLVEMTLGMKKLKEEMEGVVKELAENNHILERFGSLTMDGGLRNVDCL

TRKA = target: T37, TRKA (Homo sapiens, UniProt P04629); test: Millipore kinase panel; format: biochemical; settings: read-out: % Control
T37 construct: purchased Millipore KinaseProfiler (kinases); Cerep (receptors and ion channels)

TSSK1 = target: T38, TSSK1 (Homo sapiens, UniProt Q9BXA7); test: Millipore kinase panel; format: biochemical; settings: read-out: % Control
T38 construct: purchased Millipore KinaseProfiler (kinases); Cerep (receptors and ion channels)

YES = target: T39, YES (Homo sapiens, UniProt P07947); test: Millipore kinase panel; format: biochemical; settings: read-out: % Control
T39 construct: purchased Millipore KinaseProfiler (kinases); Cerep (receptors and ion channels)
T39 sequence (P07947 whole entry): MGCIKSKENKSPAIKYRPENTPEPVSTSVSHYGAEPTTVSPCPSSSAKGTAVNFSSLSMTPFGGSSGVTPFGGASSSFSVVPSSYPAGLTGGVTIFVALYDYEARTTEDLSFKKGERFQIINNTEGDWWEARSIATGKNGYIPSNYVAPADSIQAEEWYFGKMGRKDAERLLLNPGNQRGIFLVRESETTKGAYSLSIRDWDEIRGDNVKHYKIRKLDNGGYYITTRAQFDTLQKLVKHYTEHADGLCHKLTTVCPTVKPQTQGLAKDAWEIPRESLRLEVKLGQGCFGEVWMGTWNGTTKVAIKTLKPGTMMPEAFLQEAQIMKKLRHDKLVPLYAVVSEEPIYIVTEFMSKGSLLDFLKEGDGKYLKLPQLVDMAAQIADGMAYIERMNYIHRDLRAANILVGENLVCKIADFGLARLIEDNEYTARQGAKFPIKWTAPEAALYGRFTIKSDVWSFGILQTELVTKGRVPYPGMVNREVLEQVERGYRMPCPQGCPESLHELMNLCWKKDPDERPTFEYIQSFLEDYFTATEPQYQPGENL

CK1GAMMA1 = target: T40, CK1GAMMA1 (Homo sapiens, UniProt Q9HCP0); test: Millipore kinase panel; format: biochemical; settings: read-out: % Control
T40 construct: purchased Millipore KinaseProfiler (kinases); Cerep (receptors and ion channels)

RSK4 = target: T41, RSK4 (Homo sapiens, UniProt Q9UK32); test: Millipore kinase panel; format: biochemical; settings: read-out: % Control
T41 construct: purchased Millipore KinaseProfiler (kinases); Cerep (receptors and ion channels)

GCK = target: T42, GCK (Homo sapiens, UniProt Q12851); test: Millipore kinase panel; format: biochemical; settings: read-out: % Control
T42 construct: purchased Millipore KinaseProfiler (kinases); Cerep (receptors and ion channels)

IGF-1R, ACTIVATED = target: T43, IGF-1R, ACTIVATED (Homo sapiens, UniProt P08069); test: Millipore kinase panel; format: biochemical; settings: read-out: % Control
T43 construct: purchased Millipore KinaseProfiler (kinases); Cerep (receptors and ion channels)

T1 sequence (P21728 whole entry): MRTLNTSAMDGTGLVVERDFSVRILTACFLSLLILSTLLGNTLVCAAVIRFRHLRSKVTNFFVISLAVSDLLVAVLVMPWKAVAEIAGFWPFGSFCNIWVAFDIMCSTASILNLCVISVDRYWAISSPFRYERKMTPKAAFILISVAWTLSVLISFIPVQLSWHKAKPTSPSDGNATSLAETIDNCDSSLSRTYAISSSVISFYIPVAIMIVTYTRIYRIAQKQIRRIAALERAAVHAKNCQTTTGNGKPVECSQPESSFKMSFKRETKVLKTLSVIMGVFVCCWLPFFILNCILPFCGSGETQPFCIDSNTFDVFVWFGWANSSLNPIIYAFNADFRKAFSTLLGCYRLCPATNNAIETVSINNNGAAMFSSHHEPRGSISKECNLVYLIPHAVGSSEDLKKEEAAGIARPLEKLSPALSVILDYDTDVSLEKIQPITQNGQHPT

Question: O=C1NCCC12CCN(c1c(Cl)cncc1-c1ccc(N3CCOCC3)cc1)CC2 [Compound 44, 8-(3-Chloro-5-(4-morpholin-4-ylphenyl)pyridin-4-yl)-2,8-diazaspiro[4.5]decan-1-one] was tested. Which inhibition at 10 µM (D1 (h)) did it give?
Answer: 2%

Question: What about the inhibition at 10 µM (D2S (h)) of the same molecule?
Answer: 9%

Question: What about the “% Inhibition of Control Specific Binding” value (GABA (non-selective)) of the same molecule?
Answer: 10%

Question: What about the inhibition at 10 µM (GAL2 (h)) of the same molecule?
Answer: -22%

Question: What about the inhibition at 10 µM (M1 (h)) of the same molecule?
Answer: 12%

Question: And the inhibition at 10 µM (NK2 (h))?
Answer: 11%

Question: And the inhibition at 10 µM (Y2 (h))?
Answer: -8%

Question: And the inhibition at 10 µM (NOP (ORL1) (h))?
Answer: 12%

Question: What about the inhibition at 10 µM (5-HT1B) of the same molecule?
Answer: -29%

Question: And the inhibition at 10 µM (dopamine transporter (h))?
Answer: -13%

Question: And the remaining activity at 1 µM (ALK4)?
Answer: 14%

Question: And the remaining activity at 1 µM (BRSK1)?
Answer: 5%

Question: What about the remaining activity at 1 µM (EPHA2) of the same molecule?
Answer: 10%

Question: And the remaining activity at 1 µM (EPHA8)?
Answer: -3%

Question: And the remaining activity at 1 µM (FGFR3)?
Answer: 10%

Question: And the remaining activity at 1 µM (FGR)?
Answer: 16%

Question: What about the remaining activity at 1 µM (FLT1) of the same molecule?
Answer: 10%

Question: What about the remaining activity at 1 µM (FMS) of the same molecule?
Answer: -39%

Question: What about the remaining activity at 1 µM (HIPK3) of the same molecule?
Answer: 7%

Question: And the remaining activity at 1 µM (IRR)?
Answer: 1%

Question: What about the remaining activity at 1 µM (JNK1ALPHA1) of the same molecule?
Answer: 0%

Question: And the remaining activity at 1 µM (JNK3)?
Answer: 11%

Question: What about the remaining activity at 1 µM (LKB1) of the same molecule?
Answer: 7%

Question: What about the remaining activity at 1 µM (MAPKAP-K3) of the same molecule?
Answer: -3%

Question: What about the remaining activity at 1 µM (MARK1) of the same molecule?
Answer: 4%

Question: What about the remaining activity at 1 µM (MEK1) of the same molecule?
Answer: -3%

Question: And the remaining activity at 1 µM (MST2)?
Answer: 1%

Question: What about the remaining activity at 1 µM (PAK4) of the same molecule?
Answer: -2%

Question: What about the remaining activity at 1 µM (PAR-1BALPHA) of the same molecule?
Answer: -6%

Question: And the remaining activity at 1 µM (PIM-2)?
Answer: 7%

Question: What about the remaining activity at 1 µM (PRAK) of the same molecule?
Answer: -8%

Question: What about the remaining activity at 1 µM (PRK2) of the same molecule?
Answer: 17%

Question: What about the remaining activity at 1 µM (CRAF) of the same molecule?
Answer: -1%

Question: What about the remaining activity at 1 µM (RSE) of the same molecule?
Answer: 7%

Question: And the remaining activity at 1 µM (SAPK2B)?
Answer: 4%

Question: And the remaining activity at 1 µM (SRPK2)?
Answer: 10%

Question: What about the remaining activity at 1 µM (TBK1) of the same molecule?
Answer: 5%

Question: What about the remaining activity at 1 µM (TRKA) of the same molecule?
Answer: 17%

Question: And the remaining activity at 1 µM (TSSK1)?
Answer: 11%

Question: What about the remaining activity at 1 µM (YES) of the same molecule?
Answer: -11%

Question: And the remaining activity at 1 µM (CK1GAMMA1)?
Answer: 2%

Question: And the remaining activity at 1 µM (RSK4)?
Answer: 2%

Question: And the remaining activity at 1 µM (GCK)?
Answer: -9%

Question: And the remaining activity at 1 µM (IGF-1R, ACTIVATED)?
Answer: 3%

From publication PMC4767141, “Discovery of Potent, Orally Bioavailable, Small-Molecule Inhibitors of WNT Signaling from a Cell-Based Pathway Screen” (Journal of Medicinal Chemistry, 2015)
